Paper PMC12764611 (Nature Communications, 2025)

Target: T1, IGFBP7 (endogenous, HK-2 cells, CETSA) (Homo sapiens, UniProt Q16270)
T1 sequence (Q16270 27-282): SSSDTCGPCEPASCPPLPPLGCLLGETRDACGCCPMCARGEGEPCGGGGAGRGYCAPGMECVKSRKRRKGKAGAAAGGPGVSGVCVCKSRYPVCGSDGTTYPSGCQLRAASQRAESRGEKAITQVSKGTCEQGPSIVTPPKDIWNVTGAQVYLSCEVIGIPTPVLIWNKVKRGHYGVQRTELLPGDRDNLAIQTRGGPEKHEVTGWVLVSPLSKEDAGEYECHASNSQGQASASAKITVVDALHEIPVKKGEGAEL
Test: cellular thermal shift assay, immunoblot
Type: cell-based
Settings: HK-2 cells with or without LA pretreatment, then lysed and heated

In the case of CN1c2c(nc(N)[nH]c2=O)NC[C@@H]1CNc1ccc(C(=O)N[C@@H](CCC(=O)O)C(=O)O)cc1 [levomefolic acid], the “cellular thermal shift assay, immunoblot” value is reported as “analysis showing the stabilisation of IGFBP7 in vitro, with or without LA treatment”.
